Data from ChEMBL document CHEMBL4622884, “Synthesis of novel 3,5,6-trisubstituted 2-pyridone derivatives and evaluation for their anti-inflammatory activity” (Bioorg Med Chem, 2020).
Active and inactive are the calls of the source. The calls are words filed in the database; no cut-off is given here.

Tests used:
[1] = system: Mus musculus; assay: Anti-inflammatory activity against croton oil-induced ear edema in Swiss mouse model assessed as inhibition of ear edema at 1.25 mg/ear administered topically immediately after croton oil-stimulation and measured after 6 hrs relative to control; assay type: functional
[2] = Cytotoxicity against mouse L929 cells assessed as reduction in cell viability measured after 72 hrs by MTT assay; assay type: cell-based
[3] = Cytotoxicity against mouse J774A1 cells assessed as reduction in cell viability measured after 48 hrs by MTT assay; assay type: cell-based, J774.A1
[4] = system: Mus musculus; assay: Anti-inflammatory activity against croton oil-induced ear edema in Swiss mouse model assessed as inhibition of ear edema at 0.625 mg/ear administered topically immediately after croton oil-stimulation and measured after 6 hrs relative to control; assay type: functional
[5] = system: Mus musculus; assay: Anti-inflammatory activity against croton oil-induced ear edema in Swiss mouse model assessed as inhibition of myeloperoxidase activity at 1.25 mg/ear administered topically immediately after croton oil-stimulation and measured after 6 hrs by microplate spectrophotometry relative to control; assay type: functional
[6] = system: Mus musculus; assay: Anti-inflammatory activity against croton oil-induced ear edema in Swiss mouse model assessed as inhibition of myeloperoxidase activity at 0.625 mg/ear administered topically immediately after croton oil-stimulation and measured after 6 hrs by microplate spectrophotometry relative to control; assay type: functional
[7] = target: T1, COX-1 (Prostaglandin G/H synthase 1) (Ovis aries, UniProt P05979); assay: Inhibition of ovine COX-1 at 31.25 uM by microplate reader based assay relative to control; conditions: sheep, ovine COX-1 enzyme
T1 sequence (P05979 whole entry): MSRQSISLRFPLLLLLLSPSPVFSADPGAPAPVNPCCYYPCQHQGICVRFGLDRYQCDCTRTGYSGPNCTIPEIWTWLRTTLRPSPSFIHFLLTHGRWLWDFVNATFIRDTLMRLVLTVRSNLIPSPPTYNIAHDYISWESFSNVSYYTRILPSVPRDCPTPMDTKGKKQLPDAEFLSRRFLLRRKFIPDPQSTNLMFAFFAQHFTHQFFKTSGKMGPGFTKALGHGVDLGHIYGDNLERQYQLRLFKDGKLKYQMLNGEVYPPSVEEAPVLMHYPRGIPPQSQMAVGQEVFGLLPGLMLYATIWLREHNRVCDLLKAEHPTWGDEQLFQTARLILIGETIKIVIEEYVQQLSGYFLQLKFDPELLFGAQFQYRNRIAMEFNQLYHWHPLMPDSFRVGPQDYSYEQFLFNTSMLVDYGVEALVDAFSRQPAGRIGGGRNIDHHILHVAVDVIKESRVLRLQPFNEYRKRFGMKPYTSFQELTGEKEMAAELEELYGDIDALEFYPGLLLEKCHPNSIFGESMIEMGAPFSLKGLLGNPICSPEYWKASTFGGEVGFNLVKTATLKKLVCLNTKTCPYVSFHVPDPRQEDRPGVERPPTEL

[8] = target: T2, Prostaglandin G/H synthase 2 (Homo sapiens) (UniProt P35354); assay: Inhibition of recombinant human COX-2 at 1.95 uM by microplate reader based assay relative to control
T2 sequence (whole entry): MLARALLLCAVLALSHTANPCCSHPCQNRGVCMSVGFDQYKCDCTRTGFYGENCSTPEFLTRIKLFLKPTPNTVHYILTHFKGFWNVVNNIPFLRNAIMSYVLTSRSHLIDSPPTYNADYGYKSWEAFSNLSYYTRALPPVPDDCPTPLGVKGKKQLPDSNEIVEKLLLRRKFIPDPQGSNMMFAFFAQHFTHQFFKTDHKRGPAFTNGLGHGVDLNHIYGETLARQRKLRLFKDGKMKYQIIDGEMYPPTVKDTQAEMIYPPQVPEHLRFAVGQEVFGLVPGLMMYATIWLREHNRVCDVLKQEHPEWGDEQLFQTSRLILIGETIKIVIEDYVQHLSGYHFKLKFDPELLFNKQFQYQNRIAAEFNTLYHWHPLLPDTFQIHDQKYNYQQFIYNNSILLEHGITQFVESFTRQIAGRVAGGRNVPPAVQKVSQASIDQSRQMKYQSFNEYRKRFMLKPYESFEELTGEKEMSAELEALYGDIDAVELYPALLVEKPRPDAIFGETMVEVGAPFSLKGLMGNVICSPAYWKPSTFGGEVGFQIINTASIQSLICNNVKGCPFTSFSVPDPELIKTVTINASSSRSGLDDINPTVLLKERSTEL

[9] = target: T2, Prostaglandin G/H synthase 2 (Homo sapiens); assay: Inhibition of recombinant human COX-2 at 31.25 uM by microplate reader based assay relative to control
[10] = target: T1, COX-1 (Prostaglandin G/H synthase 1); assay: Inhibition of ovine COX-1 at 1.95 uM by microplate reader based assay relative to control; conditions: sheep, ovine COX-1 enzyme
[11] = species on record: Ovis aries; assay: Selectivity index, ratio of IC50 of ovine COX-1 to […]
[12] = system: Mus musculus; assay: Anti-inflammatory activity against croton oil-induced ear edema in Swiss mouse model assessed as inhibition of ear edema at 1 mg/ear administered topically immediately after croton oil-stimulation and measured after 6 hrs relative to control; assay type: functional
[13] = system: Mus musculus; assay: Anti-inflammatory activity against croton oil-induced ear edema in Swiss mouse model assessed as inhibition of myeloperoxidase activity at 1 mg/ear administered topically immediately after croton oil-stimulation and measured after 6 hrs by microplate spectrophotometry relative to control; assay type: functional

SMILES | CC50 at 72 h [2] [µM] | CC50 at 48 h [3] [µM] | inhibition (INH) [1] [%] | inhibition (INH) [4] [%] | inhibition (INH) [5] [%] | inhibition (INH) [6] [%] | other results
CCOC(=O)c1[nH]c(=O)c(C#N)cc1C(=O)c1ccc(OC)cc1 | 259 | < 100 |  |  |  |  | inhibition [1]: Active
CCOC(=O)c1[nH]c(=O)c(C#N)cc1C(=O)c1ccc([N+](=O)[O-])cc1.CNC [listing 1 of 2 here] | 257 | < 100 | 98.9 | 70 | 98.9 | 99 | inhibition at 31.25 µM [7]: 16.3%
CCOC(=O)c1[nH]c(=O)c(C#N)cc1C(=O)c1ccc(F)cc1 | 232 | < 100 |  |  |  |  | inhibition [1]: Active
O=C(c1ccc([N+](=O)[O-])cc1)c1cc(C(=O)O)c(=O)[nH]c1C(=O)O | 439 | 388 | 93 | 90.8 | 94.3 | 99.6 | inhibition [8]: 20.2%; inhibition [9]: 38.1%; inhibition at 1.95 µM [10]: 12.4%; inhibition at 31.25 µM [7]: 36.8%
CCOC(=O)c1[nH]c(=O)c(C#N)cc1C(=O)c1ccc(Br)cc1 | 242 | < 100 |  |  |  |  | inhibition [1]: Active
O=C(c1ccc(Cl)cc1)c1cc(C(=O)O)c(=O)[nH]c1C(=O)O |  |  | 54.2 | 84 | 99 | 89.4 | 
CCOC(=O)c1[nH]c(=O)c(C(=O)OCC)cc1C(=O)c1ccc([N+](=O)[O-])cc1 |  |  | 87.9 | 66.3 | 99 | 99 | 
CCOC(=O)c1[nH]c(=O)c(C(=O)OCC)cc1C(=O)c1ccc(Cl)cc1 |  |  |  |  | 88.1 | 94.4 | 
CCOC(=O)c1[nH]c(=O)c(C#N)cc1C(=O)c1ccc(Cl)cc1.CNC |  |  | 71.3 | 70.1 | 99.9 | 99 | 
N#Cc1cc(C(=O)c2ccc([N+](=O)[O-])cc2)c(C(=O)O)[nH]c1=O |  |  | 64.6 |  | 97.6 | 99 | 
CCOC(=O)c1[nH]c(=O)c(C#N)cc1C(=O)c1ccc(C)cc1 | 512 | 194 |  |  |  |  | inhibition [1]: Active
CCOC(=O)c1[nH]c(=O)c(C#N)cc1C(=O)c1ccccc1 | 465 | 215 |  |  |  |  | inhibition [1]: Active
CCOC(=O)c1[nH]c(=O)c(C#N)cc1C(=O)c1ccc([N+](=O)[O-])cc1 | 213 | < 100 | 93 |  | 99 | 99 | 
CS(=O)(=O)c1ccc(-c2cc(Cn3ccnc3)c3ccc(C4CCCCC4)c(C4CCCCC4)c3n2)cc1 |  |  |  |  |  |  | Ratio IC50 [11]: 548
COc1ccc2c(c1)c(CC(=O)O)c(C)n2C(=O)c1ccc(Cl)cc1 [INDOMETHACIN] |  |  |  |  |  |  | inhibition (INH) [12]: 98.2%; inhibition (INH) [13]: 48%
CCOC(=O)c1[nH]c(=O)c(C#N)cc1C(=O)c1ccc([N+](=O)[O-])cc1.CNC [listing 2 of 2 here] |  |  |  |  |  |  | inhibition [8]: 74%; inhibition [9]: 10.1%
CCOC(=O)c1[nH]c(=O)c(C(=O)O)cc1C(=O)c1ccc(Cl)cc1 |  |  |  |  | 93 | 99 | 
CCOC(=O)c1[nH]c(=O)c(C#N)cc1C(=O)c1ccc(Cl)cc1 | 218 | < 100 | 73.9 |  | 99 | 99 | 
N#Cc1cc(C(=O)c2ccc(Cl)cc2)c(C(=O)O)[nH]c1=O |  |  |  | 74.5 |  | 84.5 | 
